Measurements reported in US4816482A, “Radioprotective agents having an amino-thioalkyl structure” (priority 1983, dated 1989).
Counter-ions that a name gives are not always drawn. Like-named read-outs stand apart in the source and are kept apart here.

Assays:
mice [1] = assay: Acute toxicity (LD50), i.p.; type: in vivo; conditions: Table I
mice [2] = assay: Radioprotective activity: survival at the 30th day after irradiation; type: in vivo; conditions: for responders at 400 mg/kg: 400 mg/kg i.p.; for radioprotective activity (in words): mouse, in vivo; for responders at 625 mg/kg: 625 mg/kg i.p.; for responders at 1000 mg/kg: 1,000 mg/kg i.p.; for responders at 500 mg/kg: 500 mg/kg i.p.
Experimental: This study of radioprotective activity was carried out according to a technique described by M. Fatome at al., Eur. J. Med. Chem. 1977, 12, (1), 93. […] This dose is equal to 950 Rad.
More complete studies are recorded in Table II.

[3] = Acute toxicity (LD50), i.p.; type: in vivo, mice; conditions: mouse, in vivo, ip
[4] = Mus musculus, light or radiation study, ip, 720 h, read-out: % survival at the 30th day, Table I, 750 mg/kg i.p., 15' before irradiation at 900 or 950 Rad
[5] = Mus musculus, light or radiation study, ip, 720 h, Table I, 15' before irradiation at 900 or 950 Rad, read-out: % survival at the 30th day
[6] = Mus musculus, light or radiation study, ip, 720 h, read-out: % survival at 30 days, Table II, 750 mg/kg i.p., 15' before irradiation, 900 Rad
[7] = Mus musculus, light or radiation study, ip, 720 h, read-out: % survival at 30 days, Table II, 750 mg/kg i.p., 2 hours before irradiation, 900 Rad
[8] = Mus musculus, light or radiation study, ip, 720 h, Table I, 750 mg/kg i.p., 15' before irradiation at 900 or 950 Rad, read-out: % survival at the 30th day
[9] = Mus musculus, light or radiation study, ip, 720 h, Table II, 15' before irradiation, 900 Rad, read-out: % survival at 30 days
[10] = Mus musculus, light or radiation study, ip, 720 h, Table II, 15' before irradiation, 1,100 Rad, read-out: % survival at 30 days
[11] = Mus musculus, light or radiation study, ip, 720 h, Table II, 15' before irradiation, 950 Rad, read-out: % survival at 30 days

Br.Br.NCC(=O)NCCSSCCNC(=O)CN [Example 16, N,N'-[…] DIHYDROBROMIDE]
LD50 (mice [1]): 1,500 mg/kg | responders at 750 mg/kg (mice [2]; [4]): 100%

Br.CC(=O)SCCNC(=O)[C@H](C)N [Example 4]
LD50 (mice [1]): 1,500 mg/kg

CC(=O)SCCNC(=O)CN [Example 8]
LD50 ([3]; Table I): 1200 mg/kg | LD50 ([3]; Table II): 1200 mg/kg | % survival at the 30th day (mice [2]; Table I, 750 mg/kg i.p., 15' before irradiation at 900 or 950 Rad): 93% | % survival at 30 days (mice [2]; Table II, 187 mg/kg i.p., 15' before irradiation, 900 Rad): 0% | % survival at 30 days (mice [2]; Table II, 750 mg/kg i.p., 15' before irradiation, 900 Rad): 93% | % survival at 30 days (mice [2]; Table II, 750 mg/kg i.p., 15' before irradiation, 1,100 Rad): 50%

Br.CC(=O)SCCNC(=O)CCCN [Example 6, HYDROBROMIDE]
responders at 400 mg/kg (mice [2]; [5]): 60%

Br.CC(=O)SCCNC(=O)CCCN [Example 6]
LD50 (mice [1]): 800 mg/kg

CC(=O)NC(C)(C)CSC(=O)CN.O=C(O)C(F)(F)F [Example 24, TRIFLUOROACETATE]
responders at 750 mg/kg (mice [2]; [6]): 70% | responders at 750 mg/kg (mice [2]; Mus musculus, light or radiation study, ip, 720 h, read-out: % survival at 30 days, Table II, 750 mg/kg i.p., 15' before irradiation, 1,100 Rad): 13% | responders at 750 mg/kg (mice [2]; [7]): 50% | responders at 750 mg/kg (mice [2]; [4]): 70%

CC(=O)SCC(C)(C)NC(=O)CN [Example 26, TRIFLUOROACETATE]
LD50 ([3]; Table I): 1200 mg/kg | LD50 ([3]; Table II): 1200 mg/kg | responders at 750 mg/kg (mice [2]; Mus musculus, ip, 720 h, Table II, 750 mg/kg i.p., 4th entry, time and Rad not given, read-out: % survival at 30 days): 0% | responders at 750 mg/kg (mice [2]; [8]): 60% | responders at 187 mg/kg (mice [2]; Mus musculus, light or radiation study, ip, 720 h, Table II, 187 mg/kg i.p., 15' before irradiation, 900 Rad, read-out: % survival at 30 days): 40% | responders at 750 mg/kg (mice [2]; Mus musculus, light or radiation study, ip, 720 h, Table II, 750 mg/kg i.p., 15' before irradiation, 900 Rad, read-out: % survival at 30 days): 60% | responders at 750 mg/kg (mice [2]; Mus musculus, light or radiation study, ip, 720 h, Table II, 750 mg/kg i.p., 2 hours before irradiation, 900 Rad, read-out: % survival at 30 days): 70% | radioprotective activity (in words) (mice [2]): show radioprotective activity

CC(=O)SCCNC(=O)CNC(=O)CN.O=C(O)C(F)(F)F [Example 28]
LD50 [3]: > 2000 mg/kg | LD50 ([3]; Table I): > 2000 mg/kg | LD50 ([3]; Table II): > 2000 mg/kg | survival at 30 days (mice [2]; mice, 1,500 mg/kg (i.p.) 15 minutes before irradiation of 1,100 Rad): 100%

Br.Br.C[C@H](N)C(=O)NCCSSCCNC(=O)[C@H](C)N [Example 19, N,N'-[…] DIHYDROBROMIDE]
LD50 ([3]; Table I): 800 mg/kg | responders at 400 mg/kg (mice [2]; Mus musculus, light or radiation study, ip, 720 h, read-out: % survival at the 30th day, Table I, 15' before irradiation at 900 or 950 Rad): 100%

CC(=O)SCCNC(=O)[C@H](C)N.O=C(O)C(F)(F)F [Example 22, TRIFLUOROACETATE]
responders at 156 mg/kg (mice [2]; Mus musculus, ip, 720 h, Table II, 156 mg/kg i.p., time and Rad not given, read-out: % survival at 30 days): 0% | responders at 625 mg/kg (mice [2]; [5]): 100% | responders at 625 mg/kg (mice [2]; Mus musculus, light or radiation study, ip, 720 h, Table II, 2 (hours, cut off) before irradiation, 900 Rad, read-out: % survival at 30 days): 10% | responders at 625 mg/kg (mice [2]; [9]): 100% | responders at 625 mg/kg (mice [2]; [10]): 50%

CC(=O)SCCNC(=O)CNC(=O)CN.O=C(O)C(F)(F)F [Example 28, TRIFLUOROACETATE]
responders at 1000 mg/kg (mice [2]; [5]): 100% | responders at 1000 mg/kg (mice [2]; [9]): 100% | responders at 1000 mg/kg (mice [2]; [10]): 0% | responders at 1500 mg/kg (mice [2]; Mus musculus, light or radiation study, ip, 720 h, Table II, 1,500 mg/kg i.p., 15' before irradiation, Rad not printed (1,100 in text), read-out: % survival at 30 days): 100%

NCC(=O)NCCSSCCNC(=O)CN.O=C(O)C(F)(F)F.O=C(O)C(F)(F)F [Example 18, N,N'-[…] DI(TRIFLUOROACETATE)]
LD50 ([3]; Table I): 1200 mg/kg | LD50 ([3]; Table II): 1250 mg/kg | responders at 47 mg/kg (mice [2]; Mus musculus, light or radiation study, ip, 720 h, read-out: % survival at 30 days, Table II, 47 mg/kg i.p., 15' before irradiation, 900 Rad): 0% | responders at 94 mg/kg (mice [2]; Mus musculus, light or radiation study, ip, 720 h, read-out: % survival at 30 days, Table II, 94 mg/kg i.p., 15' before irradiation, 900 Rad): 30% | responders at 187 mg/kg (mice [2]; Mus musculus, light or radiation study, ip, 720 h, read-out: % survival at 30 days, Table II, 187 mg/kg i.p., 15' before irradiation, 900 Rad): 90% | responders at 187 mg/kg (mice [2]; Mus musculus, light or radiation study, ip, 720 h, read-out: % survival at 30 days, Table II, 187 mg/kg i.p., 15' before irradiation, 1,100 Rad): 0% | responders at 750 mg/kg (mice [2]; [6]): 100% | responders at 750 mg/kg (mice [2]; Mus musculus, light or radiation study, ip, 720 h, read-out: % survival at 30 days, Table II, 750 mg/kg i.p., 15' before irradiation, 1,300 Rad): 10% | responders at 750 mg/kg (mice [2]; [7]): 60% | responders at 1000 mg/kg (mice [2]; Mus musculus, light or radiation study, ip, 720 h, read-out: % survival at 30 days, Table II, 15' before irradiation, 1,300 Rad): 0% | % survival at the 30th day (mice [2]; ip, 750 mg/kg, 720 h): 100%

Br.CC(=O)SCCNC(=O)[C@H](C)N [Example 4, HYDROBROMIDE]
responders at 188 mg/kg (mice [2]; Mus musculus, light or radiation study, ip, 720 h, Table I, 188 mg/kg i.p., 15' before irradiation at 900 or 950 Rad): 40% | responders at 750 mg/kg (mice [2]; [8]): 80%

Br.CC(=O)SCCNC(=O)CN [Example 2, HYDROBROMIDE]
responders at 187 mg/kg (mice [2]; Mus musculus, light or radiation study, ip, 720 h, Table I, 187 mg/kg i.p., 15' before irradiation at 900 or 950 Rad, read-out: % survival at the 30th day): 67% | responders at 750 mg/kg (mice [2]; [8]): 100%

CC(=O)NCCSC(=O)CN.O=C(O)C(F)(F)F [Example 34, TRIFLUOROACETATE]
responders at 500 mg/kg (mice [2]; [5]): 70% | responders at 125 mg/kg (mice [2]; Mus musculus, light or radiation study, ip, 720 h, Table II, 125 mg/kg i.p., 15' before irradiation, 950 Rad, read-out: % survival at 30 days): 20% | responders at 500 mg/kg (mice [2]; [11]): 70%

CC(=O)OC(CNC(=O)CN)CSSCC(CNC(=O)CN)OC(C)=O (stereo not drawn) [Example 31, 1,2-DI(3-GLYCYLAMINO-2-ACETOXYPROPYL)[…](TRIFLUOROACETATE)]
LD50 ([3]; Table I): 750 mg/kg | LD50 ([3]; Table II): 750 mg/kg | % survival at 30 days (mice [2]; ip, 93.7 mg/kg, 720 h): 0% | % survival at the 30th day (mice [2]; ip, 375 mg/kg): 60%

NCC(=O)NCC(=O)NCCSSCCNC(=O)CNC(=O)CN.O=C(O)C(F)(F)F.O=C(O)C(F)(F)F [Example 36, N,N'-DI(GLYCYLGLYCYL)CYSTAMINE DI(TRIFLUOROACETATE)]
LD50 ([3]; Table I): 2000 mg/kg | LD50 ([3]; Table II): 2000 mg/kg | responders at 1000 mg/kg (mice [2]; [5]): 30% | responders at 250 mg/kg (mice [2]; Mus musculus, light or radiation study, ip, 720 h, Table II, 250 mg/kg i.p., 15' before irradiation, 950 Rad, read-out: % survival at 30 days): 10% | responders at 1000 mg/kg (mice [2]; [11]): 30%

CC(=O)NC(C)(C)CSC(=O)CN.O=C(O)C(F)(F)F [Example 24]
LD50 ([3]; Table I): 1500 mg/kg | LD50 ([3]; Table II): 1500 mg/kg | radioprotective activity (in words) (mice [2]): show radioprotective activity

Br.CC(=O)SCCNC(=O)CN [Example 2]
LD50 (mice [1]): 1,500 mg/kg
